# Assay results from patent US20110071124A1, “Compounds that Inhibit Production of sAPPB and AB and Uses Thereof” (The Trustees of Columbia University in the City of New York, priority 2008, published 2011).
# Tests used:
# Assay type in all cases: cell-based, mouse
# [1] = tested on: sAPPβ in Tg2576 primary cortical neurons; test: sAPPβ IP-Western in Tg2576 primary cortical neurons; conditions: LDN-0057228 20 μM, CNS-2 5 μM, 24 hours
# Procedure: (§1) FIG. 17A-B. LDN-0057228 and CNS-2 reduce Aβ40 and sAPPβ in Tg2576 primary neurons. Primary cortical neurons were cultured from P0 APPsw transgenic pups (Tg2576). DIV-14 neurons were treated for 24 hours with LDN-0057228 or CNS-2 at the indicated concentrations. Data from two independent experiments were pooled. A) Media was collected for Aβ40 ELISA. Raw Aβ40 values were normalized to total protein to control for variations in plating density or any cytotoxicity resulting from the compounds. B) sAPPβ in the media was immunoprecipitated with sβsw antibody and visualized on Western blot with LN27.
# CNS-2 and LDN-0057228 were evaluated in the Tg2576 pup system (FIG. 17). Primary cortical neurons were harvested from P0 Tg2576 pups. Each pup yielded 3 wells on a 12-well plate at a plating density of 0.8×10^5 cells per well. After genotyping, neurons from each transgenic pup (APPsw +/−) were treated with DMSO, LDN-0057228 (20 μM), or CNS-2 (5 μM) at DIV-14 for 24 hours. Data from two independent experiments were pooled, representing primary neurons from 4 transgenic pups. LDN-0057228 (20 μM) reduced Aβ40 by 65% (p<0.001) and CNS-2 (5 μM) reduced Aβ40 by 60% (p=0.001) (FIG. 17A).
# [2] = tested on: Aβ40 in Tg2576 primary cortical neurons; test: Aβ40 ELISA in Tg2576 primary cortical neurons; conditions: 24 hours, normalized to total protein
# Procedure: as §1
# Culturing primary neurons from Tg2576 pups offers the advantage of equal APP expression, but suffers the drawback of lower yield since only half the pups contains the transgene. Furthermore, because neurons from each pup has to be plated separately, plating density and neuronal survivability may vary from mouse to mouse. Thus, total protein was used to normalize the data.
# CNS-2 and LDN-0057228 were evaluated in the Tg2576 pup system (FIG. 17). Primary cortical neurons were harvested from P0 Tg2576 pups. Each pup yielded 3 wells on a 12-well plate at a plating density of 0.8×10^5 cells per well. After genotyping, neurons from each transgenic pup (APPsw +/−) were treated with DMSO, LDN-0057228 (20 μM), or CNS-2 (5 μM) at DIV-14 for 24 hours. […]
# [3] = tested on: Aβ40 in Lenti-APPsw infected primary cortical neurons; test: Aβ40 ELISA in Lenti-APPsw infected primary cortical neurons; conditions: 24 hours
# Procedure: FIG. 15A-D. LDN-0057228 reduces Aβ40 and sAPPβ in primary neurons. DIV-14 primary cortical neurons from wild-type mice were incubated for 24 hours with primary culture media containing lentivirus harboring APPsw. After infection, neurons were incubated for 48 hours with 1:1 fresh to conditioned media to allow for APP expression. Neurons were then treated with LDN-0057228 at 20 μM for 24 hours in triplicate. A) Media was collected for Aβ40 ELISA. Raw Aβ40 values were normalized to APP to control for variations in lentiviral infection efficiency. B) Cell lysates were probed with 6E10 antibody to visualize the transduced full-length APP. C) sAPPβ from neuron culture media was immunoprecipitated with sβsw antibody and probed with LN27. D) Quantification of sAPPβ, normalized to APP. Data in A) and […]) represent mean+s.d. of 3 wells. Bands from B) and C) were quantified using ImageJ software.
# FIG. 16A-B. CNS-2 and LDN-0057228 reduce Aβ40 in primary neurons. DIV-14 primary cortical neurons from wild-type mice were incubated for 24 hours with primary culture media containing lentivirus harboring APPsw. After infection, neurons were incubated for 48 hours with 1:1 fresh to conditioned media to allow for APP expression. Neurons were then treated for 24 hours with the indicated compound and concentration. A) Media was collected for Aβ40 ELISA. Raw Aβ40 values were normalized to APP to control for variations in lentiviral infection efficiency. B) Cell lysates were probed with 6E10 antibody to visualize the transduced full-length APP.
# Lenti-APPsw infected primary cortical neurons were selected for the initial round of physiological experiments due to the relatively large batches of wild-type primary cortical neurons that were routinely harvested in the lab, the ease of lentiviral packaging. Primary cortical neurons were harvested from wild-type P0 pups using established protocols.
# The Lenti-APPsw vector was co-transfected into HEK293 T cells with ViraPower packaging mix (Invitrogen) to generate the lentivirus. Lentiviral-mediated transduction of APPsw in primary neurons was performed by adding neuron primary culture media containing the lentiviral particles to wild-type DIV-14 primary neurons (FIG. 14). After 24 hours, neurons were incubated with media for 72 hours prior to collecting for Aβ40 measurement. Two batches of virus (LV-1 and LV-2) were tested, showing that there is batch-to-batch variation in the viral titer.
# Using this experimental paradigm, LDN-0057228 was tested at 20 μM concentration to confirm the sAPPβ- and Aβ-lowering activity of the compound (FIG. 15). The protocol was modified slightly to allow for 24-hour compound treatment. […]
SMILES,sAPPβ as visualized by IP-Western [1],reduction in Aβ40 ([2]; 5 μM) [%],reduction in Aβ40 ([3]; 5 μM) [%],reduction in Aβ40 ([2]; 20 μM) [%],"reduction in Aβ40 levels ([3]; 20 μM, normalized to APP) [%]"
O=C(CCc1ccccc1)NC[C@@H]1CCCN1CCOC(c1ccc(F)cc1)c1ccc(F)cc1 [CNS-2],reduced sAPPβ,60,> 80,,
Fc1ccc(C(OCCN2CCC[C@H]2CNCCc2ccccc2)c2ccc(F)cc2)cc1 [LDN-0057228],reduced sAPPβ,,,65,75
